Results: patent US20230243016A1, “APPLICATIONS OF CARBOXYLIC COMPOUND SERVING AS EXTRACTING AGENT AND METAL ION EXTRACTION METHOD” (BOTREE CYCLING SCI & TECH CO., LTD., priority 2020, published 2023)
Each block holds one molecule with its values, some of them ahead of it.

Legend:
[1] = Extraction performance for non-ferrous metal ions (Example 1); type: physicochemical; settings: 0.2 mol/L in dodecane, 0.01 mol/L sulfate solution, O/A 1:1
Experimental: (§1) In the embodiments of the present application, after extraction, a metal ion concentration of the aqueous phase is analyzed using the inductively coupled plasma optical emission spectroscopy (ICP-OES), and a metal ion concentration of the organic phase is calculated by the difference subtraction method.
(§2) Extractant 191 was dissolved in dodecane to prepare a 0.2 mol/L organic phase, and 0.01 mol/L sulfate solutions of Cu^2+, Zn^2+, Cd^2+, Ni^2+, Co^2+, Mn^2+, Ca^2+, Mg^2+, and Li^+ were prepared as aqueous phases, respectively.

[2] = Separation coefficients between non-ferrous metal ions (Example 1, Comparative Example 3); type: physicochemical
Experimental: as §1, §2
This comparative example differs from Example 1 in that Extractant 191 was replaced with extractant Versatic 10 (commercially available, with an acid content of 98%).

[3] = Extraction for a magnesium-enriched nickel chloride solution (Example 5); type: physicochemical; settings: 0.31 mol/L in dodecane; chloride solution 1.33 g/L Ni, 4 g/L Mg; O/A 1:1
Experimental: as §1
Extractant 191 was dissolved in dodecane to prepare a 0.31 mol/L organic phase, and an aqueous phase was the magnesium-enriched nickel chloride solution containing 1.33 g/L Ni and 4 g/L Mg.

[4] = Back extraction of organic phase loaded with rare earth ions (Example 8); type: physicochemical; settings: organic phase loaded with 0.10 mol/L Lu; 1.0 mol/L hydrochloric acid; O/A 1:1
[5] = Extraction performance for trivalent ions (Example 2); type: physicochemical; settings: 0.1 mol/L in toluene, 0.005 mol/L chloride solution, O/A 1:1
Experimental: as §1
(§3) The Extractant 195 was dissolved in toluene to prepare a 0.1 mol/L organic phase, and 0.005 mol/L chloride solutions of Fe^3+, Ga^3+, In^3+, Sc^3+, Cr^3+, Al^3+, Lu^3+, Ho^3+, and Gd^3+ were prepared as aqueous phases, respectively.

[6] = Separation coefficients between trivalent ions (Example 2); type: physicochemical
Experimental: as §1, §3

[7] = Extraction from a battery material solution (Example 3, Comparative Example 4); type: physicochemical; settings: 0.6 mol/L in Escaid 110
Experimental: as §1
Extractant 196 was dissolved in Escaid 110 to prepared a 0.6 mol/L organic phase, and the battery material solution contained Ni (46.20 g/L), Co (20.56 g/L), Mn (23.93 g/L), Ca (0.43 g/L), and Mg (0.21 g/L).
The extractant was dissolved in Escaid 110 and prepared to a 0.6 mol/L organic phase, and a battery material solution contained Ni (46.20 g/L), Co (20.56 g/L), Mn (23.93 g/L), Ca (0.43 g/L), and Mg (0.21 g/L). […] By observing the experimental phenomenon where the extractant exists in the battery material solution system, it can be seen that when the aqueous phase equilibrium pH is greater than 5.33, the phase separation phenomenon becomes worse, the aqueous phase is turbid and viscous, and the organic phase gradually becomes colorless; it can be seen from FIG. 7 that when the aqueous phase equilibrium pH is greater than 5.33, the extraction capability of the extractant for metal ions decreases.

[8] = Extraction performance for rare earth ions, mixed chloride solution (Example 4); type: physicochemical; settings: 2 mol/L in dodecane, O/A 1:1, ammonia saponification
Experimental: as §1

[9] = Saturation capacity test for Ni^2+ (Example 7); type: physicochemical; settings: 0.6 mol/L in dodecane, saponified to 60%; repeated contact with 50 g/L NiSO4
Excerpt: The organic phase was back-extracted and the saturation capacity of Extractant 196 for Ni^2+ was obtained to be about 16.9 g/L.

[10] = organic phase loaded with Lu; 4 mol/L hydrochloric acid (general practice); cited from earlier work
[11] = pH½, Example 1 / Comparative Example 3 system
[12] = aqueous phase equilibrium pH greater than 5.33, O/A 8:1

SMILES: CCCCCCCCCCC(CCCCCC)C(=O)O (stereo not drawn) [Extractant 191]
Extraction pH½ for Ca^2+ [1]: 7.32
Extraction pH½ for Cd^2+ [1]: 6.38
Extraction pH½ for Co^2+ [1]: 7.00
Extraction pH½ for Li^+ [1]: 9.75
Extraction pH½ for Mg^2+ [1]: 7.59
Extraction pH½ for Mn^2+ [1]: 7.01
Extraction pH½ for Ni^2+ [1]: 6.85
Extraction pH½ for Zn^2+ [1]: 5.91
Extraction pH½ for Cu^2+ ([1]; pH by 6 mol/L NaOH saponification): 4.49
Separation coefficient Cd^2+ / Ca^2+ ([2]; Cd^2+, row Ca^2+, Example 1 system): 75.86
Separation coefficient Cd^2+ / Co^2+ ([2]; Cd^2+, row Co^2+, Example 1 system): 17.38
Separation coefficient Cd^2+ / Mg^2+ ([2]; Cd^2+, row Mg^2+, Example 1 system): 263.03
Separation coefficient Cd^2+ / Mn^2+ ([2]; Cd^2+, row Mn^2+, Example 1 system): 18.20
Separation coefficient Cd^2+ / Ni^2+ ([2]; Cd^2+, row Ni^2+, Example 1 system): 8.71
Separation coefficient Co^2+ / Ca^2+ ([2]; Co^2+, row Ca^2+, Example 1 system): 4.37
Separation coefficient Co^2+ / Mg^2+ ([2]; Co^2+, row Mg^2+, Example 1 system): 15.14
Separation coefficient Co^2+ / Mn^2+ ([2]; Co^2+, row Mn^2+, Example 1 system): 1.05
Separation coefficients between various ions (all pairs) ([2]; Cu^2+, Zn^2+, Cd^2+, Ni^2+, Co^2+, Mn^2+, Ca^2+, Mg^2+, Li^+): greater than 1
Separation coefficient Cu^2+ / Ca^2+ ([2]; Cu^2+, row Ca^2+, Example 1 system): 457088.19
Separation coefficient Cu^2+ / Cd^2+ ([2]; Cu^2+, row Cd^2+, Example 1 system): 6025.60
Separation coefficient Cu^2+ / Co^2+ ([2]; Cu^2+, row Co^2+, Example 1 system): 104712.85
Separation coefficient Cu^2+ / Mg^2+ ([2]; Cu^2+, row Mg^2+, Example 1 system): 1584893.19
Separation coefficient Cu^2+ / Mn^2+ ([2]; Cu^2+, row Mn^2+, Example 1 system): 109647.82
Separation coefficient Cu^2+ / Ni^2+ ([2]; Cu^2+, row Ni^2+, Example 1 system): 52480.75
Separation coefficient Cu^2+ / Zn^2+ ([2]; Cu^2+, row Zn^2+, Example 1 system): 691.83
Extraction order of ions (FIG. 1) ([2]; E%-pH curves, Example 1): extracts nickel and cobalt ions in order before calcium and magnesium
Separation coefficient Ni^2+ / Ca^2+ ([2]; Ni^2+, row Ca^2+, Example 1 system): 8.71
Separation coefficient Ni^2+ / Co^2+ ([2]; Ni^2+, row Co^2+, Example 1 system): 2.00
Separation coefficient Ni^2+ / Mg^2+ ([2]; Ni^2+, row Mg^2+, Example 1 system): 30.20
Separation coefficient Ni^2+ / Mn^2+ ([2]; Ni^2+, row Mn^2+, Example 1 system): 2.09
Separation coefficient Zn^2+ / Ca^2+ ([2]; Zn^2+, row Ca^2+, Example 1 system): 660.69
Separation coefficient Zn^2+ / Cd^2+ ([2]; Zn^2+, row Cd^2+, Example 1 system): 8.71
Separation coefficient Zn^2+ / Co^2+ ([2]; Zn^2+, row Co^2+, Example 1 system): 151.36
Separation coefficient Zn^2+ / Mg^2+ ([2]; Zn^2+, row Mg^2+, Example 1 system): 2290.87
Separation coefficient Zn^2+ / Mn^2+ ([2]; Zn^2+, row Mn^2+, Example 1 system): 158.49
Separation coefficient Zn^2+ / Ni^2+ ([2]; Zn^2+, row Ni^2+, Example 1 system): 75.86
Separation coefficient Ca^2+ / Mg^2+ ([2]; column Ca^2+, row Mg^2+, Example 1 system): 3.47
Separation coefficient Mn^2+ / Ca^2+ ([2]; column Mn^2+, row Ca^2+, Example 1 system): 4.17
Separation coefficient Mn^2+ / Mg^2+ ([2]; column Mn^2+, row Mg^2+, Example 1 system): 14.45
βNi/Ca (separation coefficient) [2, 11]: 8.71
βNi/Co (separation coefficient) [2, 11]: 2.00
βNi/Mg (separation coefficient) [2, 11]: 30.2
βNi/Mn (separation coefficient) [2, 11]: 2.09
βNi/Zn (separation coefficient) [2, 11]: 75.86
Separation coefficients higher compared with Versatic 10 ([2]; same test condition): 20-30%
Extraction order of nickel and magnesium (FIG. 6) [3]: extracts nickel in order before magnesium
Separation coefficient between nickel and magnesium [3]: about 833

SMILES: CCCCCCCCC(CC)C(=O)O (stereo not drawn) [Extractant 192]
Back extraction rate [4]: greater than 99%

SMILES: CCCCC(CC)COP(=O)(O)CC(CC)CCCC (stereo not drawn) [Extractant P507]
Primary back extraction rate [10]: about 80%

The next lines start with results.

Extraction pH½ for Al^3+ [5]: 3.60
Extraction pH½ for Cr^3+ [5]: 3.03
Extraction pH½ for Ga^3+ [5]: 2.60
Extraction pH½ for Gd^3+ [5]: 5.46
Extraction pH½ for Ho^3+ [5]: 5.26
Extraction pH½ for In^3+ [5]: 2.69
Extraction pH½ for Lu^3+ [5]: 5.06
Extraction pH½ for Sc^3+ [5]: 2.97
Extraction pH½ for Fe^3+ ([5]; pH by 8 mol/L NaOH saponification): 1.94
Separation coefficients between various ions (all pairs) ([6]; Fe^3+, Ga^3+, In^3+, Sc^3+, Cr^3+, Al^3+, Lu^3+, Ho^3+, Gd^3+): greater than 1
Separation coefficient Fe^3+ / Al^3+ ([6]; Fe^3+, row Al^3+, Example 2 system): 95499.26
Separation coefficient Fe^3+ / Cr^3+ ([6]; Fe^3+, row Cr^3+, Example 2 system): 1862.09
Separation coefficient Fe^3+ / Ga^3+ ([6]; Fe^3+, row Ga^3+, Example 2 system): 95.50
Separation coefficient Fe^3+ / In^3+ ([6]; Fe^3+, row In^3+, Example 2 system): 177.83
Separation coefficient Fe^3+ / Sc^3+ ([6]; Fe^3+, row Sc^3+, Example 2 system): 1230.27
Separation coefficient Ga^3+ / Al^3+ ([6]; Ga^3+, row Al^3+, Example 2 system): 1000.00
Separation coefficient Ga^3+ / Cr^3+ ([6]; Ga^3+, row Cr^3+, Example 2 system): 19.50
Separation coefficient Ga^3+ / In^3+ ([6]; Ga^3+, row In^3+, Example 2 system): 1.86
Separation coefficient Ga^3+ / Sc^3+ ([6]; Ga^3+, row Sc^3+, Example 2 system): 12.88
Separation coefficient In^3+ / Al^3+ ([6]; In^3+, row Al^3+, Example 2 system): 537.03
Separation coefficient In^3+ / Cr^3+ ([6]; In^3+, row Cr^3+, Example 2 system): 10.47
Separation coefficient In^3+ / Sc^3+ ([6]; In^3+, row Sc^3+, Example 2 system): 6.92
Separation coefficient Cr^3+ / Al^3+ ([6]; column Cr^3+, row Al^3+, Example 2 system): 51.29
Separation coefficient Ho^3+ / Gd^3+ ([6]; column Ho^3+, row Gd^3+, Example 2 system): 3.98
Separation coefficient Lu^3+ / Gd^3+ ([6]; column Lu^3+, row Gd^3+, Example 2 system): 15.85
Separation coefficient Lu^3+ / Ho^3+ ([6]; column Lu^3+, row Ho^3+, Example 2 system): 3.98
Separation coefficient Sc^3+ / Al^3+ ([6]; column Sc^3+, row Al^3+, Example 2 system): 77.62
Separation coefficient Sc^3+ / Cr^3+ ([6]; column Sc^3+, row Cr^3+, Example 2 system): 1.51
SMILES: CCCCCCCC(CCCCC)C(=O)O (stereo not drawn) [Extractant 195]

Extraction of Ni, Co and Mn from the battery material solution ([7]; O/A 8:1, pH greater than 6.8): almost completely extracted
Extraction rate of Ca and Mg from the battery material solution ([7]; O/A 8:1, pH greater than 6.8): low extraction rate
Extraction of Ni, Co and Mn from the battery material solution ([7]; pH less than 7.2, O/A 5:1 and 8:1): selectively extracted
Saturation capacity for Ni^2+ [9]: about 16.9 g/L
SMILES: CCCCCCCCC(CCCCCC)C(=O)O (stereo not drawn) [Extractant 196]
Extraction ability for rare earth ions (FIG. 5) [8]: gradually decreases from heavy rare earths to light rare earths

Extraction capability for metal ions (FIG. 7) [7, 12]: decreases
Phase separation phenomenon [7, 12]: becomes worse
SMILES: CCCCCCCCCCCCCCCCCC(=O)O [stearic acid, reference compound]
